Data reported in patent publication US9216991B2 (Ares Trading S.A., priority 2012, dated 2015).

Molecular target: T1, IRAK4 (Homo sapiens, UniProt Q9NWZ3)
T1 construct: His (N); TEV cleavage site (N)
T1 sequence (Q9NWZ3 1-460): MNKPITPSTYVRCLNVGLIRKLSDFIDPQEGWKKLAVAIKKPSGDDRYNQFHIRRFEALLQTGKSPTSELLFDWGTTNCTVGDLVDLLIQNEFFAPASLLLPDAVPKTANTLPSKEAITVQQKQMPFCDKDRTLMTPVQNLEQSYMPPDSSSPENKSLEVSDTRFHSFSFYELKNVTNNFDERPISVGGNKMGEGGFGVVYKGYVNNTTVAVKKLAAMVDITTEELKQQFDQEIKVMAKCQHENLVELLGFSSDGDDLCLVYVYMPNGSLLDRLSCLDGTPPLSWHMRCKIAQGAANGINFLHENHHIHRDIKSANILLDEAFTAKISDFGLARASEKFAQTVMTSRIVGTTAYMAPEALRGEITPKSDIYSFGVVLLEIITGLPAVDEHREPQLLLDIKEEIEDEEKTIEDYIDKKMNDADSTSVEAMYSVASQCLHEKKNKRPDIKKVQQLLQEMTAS
Assay: IRAK4 Enzymatic Assay
Assay type: biochemical
Conditions: His-TEV-IRAK4 20 ng/well, ATP 2 μM, STK1-biotin peptide 300 nM, 3 hours at 30° C., FlashPlate radioactivity
Method in brief: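 Radiometric FlashPlate readout: biotin-STK1 substrate (300 nM) captured on streptavidin after EDTA stop and washes. Reaction used His-TEV-IRAK4 (20 ng/well), 2 μM [^33P]-spiked ATP and compound (1 nM-20 μM), incubated 3 h at 30 °C in 50 mM HEPES pH 7.0, 10 mM MgCl2, 5 mM MnCl2, 2 mM DTT.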

IC50 [nM]	Compound
< 100	COCCO[C@H]1CC[C@H](n2cc(-c3cnc(-c4cccc(-c5cnn(C)c5)c4)nc3)cn2)CC1 [Example 217, trans-5-{1-[4-(2-Methoxy-ethoxy)-cyclohexyl]-1H-pyrazol-4-yl}-2-[3-(1-methyl-1H-pyrazol-4-yl)-phenyl]-pyrimidine]
100 to 1000	COCCO[C@H]1CC[C@@H](n2cc(-c3cnc(-c4cccc(-c5cnn(C)c5)c4)nc3)cn2)CC1 [Example 218, cis-5-{1-[4-(2-Methoxy-ethoxy)-cyclohexyl]-1H-pyrazol-4-yl}-2-[3-(1-methyl-1H-pyrazol-4-yl)-phenyl]-pyrimidine]
< 100	Cn1cc(-c2cccc(-c3ncc(-c4cnn([C@H]5CC[C@H](OCC6CC6)CC5)c4)cn3)c2)cn1 [Example 220, trans-5-[1-(4-Cyclopropylmethoxy-cyclohexyl)-1H-pyrazol-4-yl]-2-[3-(1-methyl-1H-pyrazol-4-yl)-phenyl]-pyrimidine]
< 100	Cn1cc(-c2cccc(-c3ncc(-c4cnn([C@H]5CC[C@H](OCC(C)(C)O)CC5)c4)cn3)c2)cn1 [Example 224, trans-2-Methyl-1-[4-(4-{2-[3-(1-methyl-1H-pyrazol-4-yl)-phenyl]-pyrimidin-5-yl}-pyrazol-1-yl)-cyclohexyloxy]-propan-2-ol]
< 100	Cn1cc(-c2cccc(-c3ncc(-c4cnn([C@H]5CC[C@H](C(=O)NCC(C)(C)O)CC5)c4)cn3)c2)cn1 [Example 227, trans-4-(4-{2-[3-(1-Methyl-1H-pyrazol-4-yl)-phenyl]-pyrimidin-5-yl}-pyrazol-1-yl)-cyclohexanecarboxylic acid (2-hydroxy-2-methyl-propyl)-amide]
< 100	CC(O)CCNC(=O)[C@H]1CC[C@H](n2cc(-c3cnc(-c4cccc(-c5cnn(C)c5)c4)nc3)cn2)CC1 (stereo partly drawn) [Example 228, trans-4-(4-{2-[3-(1-Methyl-1H-pyrazol-4-yl)-phenyl]-pyrimidin-5-yl}-pyrazol-1-yl)-cyclohexanecarboxylic acid (3-hydroxy-butyl)-amide]
< 100	Cn1cc(-c2cccc(-c3ncc(-c4cnn([C@H]5CC[C@H](C(=O)NCC#N)CC5)c4)cn3)c2)cn1 [Example 230, trans-4-(4-{2-[3-(1-Methyl-1H-pyrazol-4-yl)-phenyl]-pyrimidin-5-yl}-pyrazol-1-yl)-cyclohexanecarboxylic acid cyanomethyl-amide]
< 100	CN(C)C[C@H]1CC[C@H](n2cc(-c3cnc(-c4cccc(-c5cnn(C)c5)c4)nc3)cn2)CC1 [Example 232, Trans-dimethyl-[4-(4-{2-[3-(1-methyl-1H-pyrazol-4-yl)-phenyl]-pyrimidin-5-yl}-pyrazol-1-yl)-cyclohexylmethyl]-amine]
< 100	Cn1cc(-c2cccc(-c3ncc(-c4cnn([C@H]5CC[C@H](CO)CC5)c4)cn3)c2)cn1 [Example 238, Trans-[4-(4-{2-[3-(1-Methyl-1H-pyrazol-4-yl)-phenyl]-pyrimidin-5-yl}-pyrazol-1-yl)-cyclohexyl]-methanol]

Continued, compound first:

Compound	IC50 [nM]
Cn1cc(-c2cccc(-c3ncc(-c4cnn(C5CCCC5O)c4)cn3)c2)cn1 (stereo not shown) [Example 211, 2-(4-{2-[3-(1-Methyl-1H-pyrazol-4-yl)-phenyl]-pyrimidin-5-yl}-pyrazol-1-yl)-cyclopentanol]	100 to 1000
Cn1cc(-c2cccc(-c3ncc(-c4cnn(CC(O)CO)c4)cn3)c2)cn1 (stereo not shown) [Example 212, 3-(4-{2-[3-(1-Methyl-1H-pyrazol-4-yl)-phenyl]-pyrimidin-5-yl}-pyrazol-1-yl)-propane-1,2-diol]	100 to 1000
Cn1cc(-c2cccc(-c3ncc(-c4cnn([C@H]5CC[C@H](C(=O)NC(C)(C)CO)CC5)c4)cn3)c2)cn1 [Example 213, trans-4-(4-{2-[3-(1-Methyl-1H-pyrazol-4-yl)-phenyl]-pyrimidin-5-yl}-pyrazol-1-yl)-cyclohexanecarboxylic acid (2-hydroxy-1,1-dimethyl-ethyl)-amide]	< 100
CC(C)OCC(CO)n1cc(-c2cnc(-c3cccc(-c4cnn(C)c4)c3)nc2)cn1 (stereo not shown) [Example 214, 3-Isopropoxy-2-(4-{2-[3-(1-methyl-1H-pyrazol-4-yl)-phenyl]-pyrimidin-5-yl}-pyrazol-1-yl)-propan-1-ol]	1000 to 5000
Cn1cc(-c2cccc(-c3ncc(-c4cnn(CC(O)c5ccccn5)c4)cn3)c2)cn1 (stereo not shown) [Example 215, 2-(4-{2-[3-(1-Methyl-1H-pyrazol-4-yl)-phenyl]-pyrimidin-5-yl}-pyrazol-1-yl)-1-pyridin-2-yl-ethanol]	100 to 1000
Cn1cc(-c2cccc(-c3ncc(-c4cnn(C5CCSC5)c4)cn3)c2)cn1 (stereo not shown) [Example 216, 2-[3-(1-Methyl-1H-pyrazol-4-yl)-phenyl]-5-[1-(tetrahydro-thiophen-3-yl)-1H-pyrazol-4-yl]-pyrimidine]	100 to 1000
Cn1cc(-c2cccc(-c3ncc(-c4cnn(C5CCCOC5)c4)cn3)c2)cn1 (stereo not shown) [Example 221, 2-[3-(1-Methyl-1H-pyrazol-4-yl)-phenyl]-5-[1-(tetrahydro-pyran-3-yl)-1H-pyrazol-4-yl]-pyrimidine]	100 to 1000
CN(C)C(=O)C1CC2(C1)CC(n1cc(-c3cnc(-c4cccc(-c5cnn(C)c5)c4)nc3)cn1)C2 (stereo not shown) [Example 222, 6-(4-{2-[3-(1-Methyl-1H-pyrazol-4-yl)-phenyl]-pyrimidin-5-yl}-pyrazol-1-yl)-spiro[3.3]heptane-2-carboxylic acid dimethylamide]	100 to 1000
CC(=O)N1CCCC(n2cc(-c3cnc(-c4cccc(-c5cnn(C)c5)c4)nc3)cn2)CC1 (stereo not shown) [Example 223, 1-[4-(4-{2-[3-(1-Methyl-1H-pyrazol-4-yl)-phenyl]-pyrimidin-5-yl}-pyrazol-1-yl)-azepan-1-yl]-ethanone]	100 to 1000
CC(=O)N1CC[C@H](n2cc(-c3cnc(-c4cccc(-c5cnn(C)c5)c4)nc3)cn2)[C@@H](O)C1 [Example 225, 1-[(3S,4S)-3-Hydroxy-4-(4-{2-[3-(1-methyl-1H-pyrazol-4-yl)-phenyl]-pyrimidin-5-yl}-pyrazol-1-yl)-piperidin-1-yl]-ethanone]	100 to 1000
Cc1cc(-c2cccc(-c3ncc(-c4cnn([C@H]5CC[C@H](C(=O)N(C)C)CC5)c4)cn3)c2)ccn1 [Example 229, Trans-4-(4-{2-[3-(2-Methyl-pyridin-4-yl)-phenyl]-pyrimidin-5-yl}-pyrazol-1-yl)-cyclohexanecarboxylic acid dimethylamide]	100 to 1000
Cn1cc(-c2cccc(-c3ncc(-c4cnn([C@H]5C=C[C@@H](O)C5)c4)cn3)c2)cn1 [Example 231, (1S,4R)-4-[4-[2-[3-(1-methylpyrazol-4-yl)phenyl]pyrimidin-5-yl]pyrazol-1-yl]cyclopent-2-en-1-ol]	100 to 1000
CN(C)C(=O)[C@H]1CC[C@H](n2cc(-c3cnc(-c4cccc(-c5ccnnc5)c4)nc3)cn2)CC1 [Example 233, Trans-4-{4-[2-(3-Pyridazin-4-yl-phenyl)-pyrimidin-5-yl]-pyrazol-1-yl}-cyclohexanecarboxylic acid dimethylamide]	100 to 1000
CN(C)C(=O)[C@H]1CC[C@H](n2cc(-c3cnc(-c4cccc(-c5ccc(Cl)nn5)c4)nc3)cn2)CC1 [Example 234, Trans-4-(4-{2-[3-(6-Chloro-pyridazin-3-yl)-phenyl]-pyrimidin-5-yl}-pyrazol-1-yl)-cyclohexanecarboxylic acid dimethylamide]	1000 to 5000
Cc1ccc(-c2cccc(-c3ncc(-c4cnn([C@H]5CC[C@H](C(=O)N(C)C)CC5)c4)cn3)c2)nn1 [Example 237, Trans-4-(4-{2-[3-(6-Methyl-pyridazin-3-yl)-phenyl]-pyrimidin-5-yl}-pyrazol-1-yl)-cyclohexanecarboxylic acid dimethylamide]	1000 to 5000
CN(C)C(=O)[C@H]1CC[C@H](n2cc(-c3cnc(-c4cccc(-c5ccc(N)nn5)c4)nc3)cn2)CC1 [Example 239, Trans-4-(4-{2-[3-(6-Amino-pyridazin-3-yl)-phenyl]-pyrimidin-5-yl}-pyrazol-1-yl)-cyclohexanecarboxylic acid dimethylamide]	100 to 1000
Cn1cc(-c2cccc(-c3ncc(-c4cnn([C@H]5CC[C@H](C(=O)NCC(O)CO)CC5)c4)cn3)c2)cn1 (stereo partly drawn) [Example 242, Trans-4-(4-{2-[3-(1-Methyl-1H-pyrazol-4-yl)-phenyl]-pyrimidin-5-yl}-pyrazol-1-yl)-cyclohexanecarboxylic acid (2,3-dihydroxy-propyl)-amide]	< 100
C[C@@H]1C[C@H](n2cc(-c3cnc(-c4cccc(-c5cnn(C)c5)c4)nc3)cn2)CCN1 [Example 243, 5-[1-((2R,4R)-2-Methyl-piperidin-4-yl)-1H-pyrazol-4-yl]-2-[3-(1-methyl-1H-pyrazol-4-yl)-phenyl]-pyrimidine formic acid]	100 to 1000
Cn1cc(-c2cccc(-c3ncc(-c4cnn([C@H]5CC[C@H](C(=O)N6C[C@H](O)[C@@H](O)C6)CC5)c4)cn3)c2)cn1 [Example 244, ((3S,4S)-3,4-Dihydroxy-pyrrolidin-1-yl)-[4-(4-{2-[3-(1-methyl-1H-pyrazol-4-yl)-phenyl]-pyrimidin-5-yl}-pyrazol-1-yl)-cyclohexyl]-methanone]	< 100
